Assay results reported in patent US20250120932A1, “PHARMACEUTICAL COMPOSITION” (NEUROPRO THERAPEUTICS, INC., priority 2021, published 2025).
Several values for one entry are separate records, joined by “and”; a condition that tells them apart may be missing. Equal entries are not always repeated.

Key:
[1] = Pharmacokinetic study in cynomolgus monkeys after oral (nasogastric) gavage, sublingual and intravenous administration; assay type: in vivo; details: monkey
Protocol: A pharmacokinetic study was done in cynomolgus monkeys following single oral (nasogastric) gavage, sublingual, and intravenous administration. […] Calibration curves, blanks, and analytical QCs were prepared in monkey plasma (K2EDTA). The extracts were evaporated to dryness, reconstituted, and then analyzed by LC-MS/MS. The calibration range was 0.250-250 ng/mL for both analytes.
If the criteria for either the calibration curve or the analytical QCs were not met, the analytical run was rejected. […] No deviations were found during the bioanalytical phase of the study conducted by Origin. Calibration curves were derived from the individual analyte to internal standard peak area ratios using the least squared regression of the ratio versus the nominal concentration of the calibration standard, prepared in duplicate. The regression was then used to back-calculate the concentration of each calibration standard, QC sample and study sample. […] Analyst® Software Version 1.6.3 (Applied Biosystems-MDS Sciex), operated with Windows® (Microsoft), was used for instrument control, data acquisition, and peak integrations. Peak area ratios, standard curve regressions, and sample concentration/accuracy values were calculated with Analyst® Software Version 1.6.3. Other results (e.g., mean statistics) were calculated with Excel® (Microsoft).
There was no apparent sex difference for the second formulation. […] A fourth formulation comprising the composition B listed in Table 54 was also administered in monheys.

[2] = Pharmacokinetic profile after single intravenous or oral gavage dose in rats; details: for C0: back predicted to time 0
Protocol: Animals were dosed via oral gavage or intravenous injection once on Day 1 at a volume of 5 mL/kg for Group 1 and 10 mL/kg for Group 2. The vehicle was 40% (v/v) Polyethylene Glycol 400 (PEG400), 20% (v/v) Propylene Glycol, 5% (v/v) Ethanol, and 35% (v/v) water for Group 1 and the vehicle was 0.5% (w/v) Carboxymethylcellulose (medium viscosity) in reverse osmosis water for Group 2.
Blood samples (approximately 0.5 mL) were collected from nonfasted toxicokinetic animals via a jugular vein on Day 1 of the dosing phase, as indicated in Table 18
Blood was collected into tubes containing potassium (K2) EDTA as the anticoagulant. Samples were maintained on wet ice and were centrifuged within 30 minutes of collection. Plasma was harvested and stored on dry ice until placed in a freezer, set to maintain −60 to −80° C., until shipped on dry ice to Origin Bioanalytical Laboratory, Inc. for analysis.
Pharmacokinetic parameters were derived using non-compartmental methods employing Phoenix WinNonlin® version 8.1 (Pharsight Corp; St. Louis, MO). The PK parameters defined previously in Table 10 were calculated by non-compartmental methods using composite plasma concentration-time data obtained from 3 rats/sex/time point/dose. The area under the concentration-time curve from zero time (pre-dose) to the last time point was calculated by a combination of linear and logarithmic trapezoidal methods. The linear trapezoidal method was employed for all incremental trapezoids arising from increasing concentrations and the logarithmic trapezoidal method was used for those arising from decreasing concentrations (linear up/log down method). Nominal blood sampling times were used in the analysis. […] Individual BQL results were set to zero for all calculations. No animals were excluded from the analysis.

[3] = male, Hsd: Sprague Dawley, rat, plasma, iv, 10 mg/kg
[4] = rats, oral 30 mg/kg vs IV 10 mg/kg

CCCCNc1cc(C(=O)N(Cc2ccccc2)Cc2ccccc2)cc(S(N)(=O)=O)c1Oc1ccccc1 [Bumetanide Dibenzylamide, N, N-dibenzyl 3-aminosulfonyl-5-butylamino-4-phenoxybenzamide]
concentration at 0 h ([1]; cynomolgus monkey, plasma, other: sublingual, 5 mg/kg, Plasma Bumetanide Dibenzylamide concentration, SL, dose column 5 mg/kg (title 30 mg/kg), Fourth Formulation (Form 2), 0.00 h, individual animals): 0 ng/mL
concentration at 0.25 h ([1]; cynomolgus monkey, plasma, other: sublingual, 5 mg/kg, Plasma Bumetanide Dibenzylamide concentration, SL, dose column 5 mg/kg (title 30 mg/kg), Fourth Formulation (Form 2), 0.25 h, individual animals): 0 ng/mL
concentration at 0.5 h ([1]; cynomolgus monkey, plasma, other: sublingual, 5 mg/kg, Plasma Bumetanide Dibenzylamide concentration, SL, dose column 5 mg/kg (title 30 mg/kg), Fourth Formulation (Form 2), 0.50 h, individual animals): 0 ng/mL
concentration at 1 h ([1]; cynomolgus monkey, plasma, other: sublingual, 5 mg/kg, Plasma Bumetanide Dibenzylamide concentration, SL, dose column 5 mg/kg (title 30 mg/kg), Fourth Formulation (Form 2), 1.0 h, individual animals): 0 ng/mL
concentration at 0.08 h ([1]; cynomolgus, cynomolgus monkey, plasma, intravenous, 2 mg/kg, Plasma Bumetanide Dibenzylamide concentration, Median, dose column 2 mg/kg (title 30 mg/kg), Third Formulation (Form 4), 0.08 h, N=4): 1370 ng/mL
concentration at 0.5 h ([1]; cynomolgus, cynomolgus monkey, plasma, intravenous, 2 mg/kg, Plasma Bumetanide Dibenzylamide concentration, Median, dose column 2 mg/kg (title 30 mg/kg), Third Formulation (Form 4), 0.50 h, N=4): 672 ng/mL
concentration at 1 h ([1]; cynomolgus, cynomolgus monkey, plasma, intravenous, 2 mg/kg, Plasma Bumetanide Dibenzylamide concentration, Median, dose column 2 mg/kg (title 30 mg/kg), Third Formulation (Form 4), 1.00 h, N=4): 504 ng/mL
concentration at 2 h ([1]; cynomolgus, cynomolgus monkey, plasma, intravenous, 2 mg/kg, Plasma Bumetanide Dibenzylamide concentration, Median, dose column 2 mg/kg (title 30 mg/kg), Third Formulation (Form 4), 2.00 h, N=4): 297 ng/mL
concentration at 4 h ([1]; cynomolgus, cynomolgus monkey, plasma, intravenous, 2 mg/kg, Plasma Bumetanide Dibenzylamide concentration, Median, dose column 2 mg/kg (title 30 mg/kg), Third Formulation (Form 4), 4.00 h, N=4): 109 ng/mL
concentration at 8 h ([1]; cynomolgus, cynomolgus monkey, plasma, intravenous, 2 mg/kg, Plasma Bumetanide Dibenzylamide concentration, Median, dose column 2 mg/kg (title 30 mg/kg), Third Formulation (Form 4), 8.00 h, N=4): 27.2 ng/mL
concentration at 24 h ([1]; cynomolgus, cynomolgus monkey, plasma, intravenous, 2 mg/kg, Plasma Bumetanide Dibenzylamide concentration, Median, dose column 2 mg/kg (title 30 mg/kg), Third Formulation (Form 4), 24.00 h, N=4): 2.62 ng/mL
concentration at 32 h ([1]; cynomolgus, cynomolgus monkey, plasma, intravenous, 2 mg/kg, Plasma Bumetanide Dibenzylamide concentration, Median, dose column 2 mg/kg (title 30 mg/kg), Third Formulation (Form 4), 32.00 h, N=4): 0.917 ng/mL
Plasma Bumetanide Dibenzylamide concentration ([1]; IV, dose column 2 mg/kg (title 30 mg/kg), Third Formulation (Form 4), 0.08 h, individual animals): 1430 ng/mL and 1160 ng/mL and 1310 ng/mL
Plasma Bumetanide Dibenzylamide concentration ([1]; IV, dose column 2 mg/kg (title 30 mg/kg), Third Formulation (Form 4), 0.50 h, individual animals): 757 ng/mL and 555 ng/mL and 626 ng/mL
Plasma Bumetanide Dibenzylamide concentration ([1]; IV, dose column 2 mg/kg (title 30 mg/kg), Third Formulation (Form 4), 1.00 h, individual animals): 536 ng/mL and 472 ng/mL and 385 ng/mL
Plasma Bumetanide Dibenzylamide concentration ([1]; IV, dose column 2 mg/kg (title 30 mg/kg), Third Formulation (Form 4), 2.00 h, individual animals): 316 ng/mL and 278 ng/mL and 214 ng/mL
Plasma Bumetanide Dibenzylamide concentration ([1]; IV, dose column 2 mg/kg (title 30 mg/kg), Third Formulation (Form 4), 4.00 h, individual animals): 87.8 ng/mL and 129 ng/mL and 89.3 ng/mL
Plasma Bumetanide Dibenzylamide concentration ([1]; IV, dose column 2 mg/kg (title 30 mg/kg), Third Formulation (Form 4), 8.00 h, individual animals): 51.4 ng/mL and 26.6 ng/mL and 27.7 ng/mL and 17.2 ng/mL
Plasma Bumetanide Dibenzylamide concentration ([1]; IV, dose column 2 mg/kg (title 30 mg/kg), Third Formulation (Form 4), 24.00 h, individual animals): 3.95 ng/mL and 0.942 ng/mL and 8.10 ng/mL and 1.28 ng/mL
Plasma Bumetanide Dibenzylamide concentration ([1]; IV, dose column 2 mg/kg (title 30 mg/kg), Third Formulation (Form 4), 32.00 h, individual animals): 1.47 ng/mL and 0.303 ng/mL and 3.80 ng/mL and 0.363 ng/mL
Plasma Bumetanide Dibenzylamide concentration ([1]; NG 30 mg/kg, First Formulation (Form 1), 0.00 h, individual animals, female monkeys): 0.00 ng/mL
Plasma Bumetanide Dibenzylamide concentration ([1]; NG 30 mg/kg, First Formulation (Form 1), 0.00 h, individual animals, male monkeys): 0.00 ng/mL
Plasma Bumetanide Dibenzylamide concentration ([1]; NG 30 mg/kg, First Formulation (Form 1), 0.25 h, individual animals, female monkeys): 0.992 ng/mL and 0.398 ng/mL
Plasma Bumetanide Dibenzylamide concentration ([1]; NG 30 mg/kg, First Formulation (Form 1), 0.25 h, individual animals, male monkeys): 0.932 ng/mL and 14.9 ng/mL
Plasma Bumetanide Dibenzylamide concentration ([1]; NG 30 mg/kg, First Formulation (Form 1), 0.50 h, individual animals, female monkeys): 1.66 ng/mL and 1.18 ng/mL
Plasma Bumetanide Dibenzylamide concentration ([1]; NG 30 mg/kg, First Formulation (Form 1), 0.50 h, individual animals, male monkeys): 3.97 ng/mL and 16.8 ng/mL
Plasma Bumetanide Dibenzylamide concentration ([1]; NG 30 mg/kg, First Formulation (Form 1), 1.00 h, individual animals, female monkeys): 8.08 ng/mL and 3.01 ng/mL
Plasma Bumetanide Dibenzylamide concentration ([1]; NG 30 mg/kg, First Formulation (Form 1), 1.00 h, individual animals, male monkeys): 12.1 ng/mL and 29.7 ng/mL
Plasma Bumetanide Dibenzylamide concentration ([1]; NG 30 mg/kg, First Formulation (Form 1), 2.00 h, individual animals, female monkeys): 11.1 ng/mL and 8.35 ng/mL
Plasma Bumetanide Dibenzylamide concentration ([1]; NG 30 mg/kg, First Formulation (Form 1), 2.00 h, individual animals, male monkeys): 157 ng/mL and 74.0 ng/mL
Plasma Bumetanide Dibenzylamide concentration ([1]; NG 30 mg/kg, First Formulation (Form 1), 4.00 h, individual animals, female monkeys): 9.83 ng/mL and 23.8 ng/mL
Plasma Bumetanide Dibenzylamide concentration ([1]; NG 30 mg/kg, First Formulation (Form 1), 4.00 h, individual animals, male monkeys): 182 ng/mL and 51.4 ng/mL
Plasma Bumetanide Dibenzylamide concentration ([1]; NG 30 mg/kg, First Formulation (Form 1), 8.00 h, individual animals, female monkeys): 17.5 ng/mL and 17.0 ng/mL
Plasma Bumetanide Dibenzylamide concentration ([1]; NG 30 mg/kg, First Formulation (Form 1), 8.00 h, individual animals, male monkeys): 99.9 ng/mL and 45.1 ng/mL
Plasma Bumetanide Dibenzylamide concentration ([1]; NG 30 mg/kg, First Formulation (Form 1), 24.00 h, individual animals, female monkeys): 3.28 ng/mL and 2.02 ng/mL
Plasma Bumetanide Dibenzylamide concentration ([1]; NG 30 mg/kg, First Formulation (Form 1), 24.00 h, individual animals, male monkeys): 21.6 ng/mL and 7.47 ng/mL
Plasma Bumetanide Dibenzylamide concentration ([1]; NG 30 mg/kg, First Formulation (Form 1), 32.00 h, individual animals, female monkeys): 0.790 ng/mL and 1.37 ng/mL
Plasma Bumetanide Dibenzylamide concentration ([1]; NG 30 mg/kg, First Formulation (Form 1), 32.00 h, individual animals, male monkeys): 9.75 ng/mL and 6.13 ng/mL
Plasma Bumetanide Dibenzylamide concentration ([1]; NG 30 mg/kg, Second Formulation (Form 3), 0.00 h, individual animals, female monkeys): 0.00 ng/mL
Plasma Bumetanide Dibenzylamide concentration ([1]; NG 30 mg/kg, Second Formulation (Form 3), 0.00 h, individual animals, male monkeys): 0.00 ng/mL
Plasma Bumetanide Dibenzylamide concentration ([1]; NG 30 mg/kg, Second Formulation (Form 3), 0.25 h, individual animals, female monkeys): 0.619 ng/mL and 0.261 ng/mL
Plasma Bumetanide Dibenzylamide concentration ([1]; NG 30 mg/kg, Second Formulation (Form 3), 0.25 h, individual animals, male monkeys): 0.250 ng/mL and 0.00 ng/mL
Plasma Bumetanide Dibenzylamide concentration ([1]; NG 30 mg/kg, Second Formulation (Form 3), 0.50 h, individual animals, female monkeys): 4.98 ng/mL and 1.71 ng/mL
Plasma Bumetanide Dibenzylamide concentration ([1]; NG 30 mg/kg, Second Formulation (Form 3), 0.50 h, individual animals, male monkeys): 1.55 ng/mL and 3.16 ng/mL
Plasma Bumetanide Dibenzylamide concentration ([1]; NG 30 mg/kg, Second Formulation (Form 3), 1.00 h, individual animals, female monkeys): 20.2 ng/mL and 7.09 ng/mL
Plasma Bumetanide Dibenzylamide concentration ([1]; NG 30 mg/kg, Second Formulation (Form 3), 1.00 h, individual animals, male monkeys): 7.56 ng/mL and 11.3 ng/mL
Plasma Bumetanide Dibenzylamide concentration ([1]; NG 30 mg/kg, Second Formulation (Form 3), 2.00 h, individual animals, female monkeys): 79.3 ng/mL and 37.8 ng/mL
Plasma Bumetanide Dibenzylamide concentration ([1]; NG 30 mg/kg, Second Formulation (Form 3), 2.00 h, individual animals, male monkeys): 16.8 ng/mL and 82.5 ng/mL
Plasma Bumetanide Dibenzylamide concentration ([1]; NG 30 mg/kg, Second Formulation (Form 3), 4.00 h, individual animals, female monkeys): 140 ng/mL and 247 ng/mL
Plasma Bumetanide Dibenzylamide concentration ([1]; NG 30 mg/kg, Second Formulation (Form 3), 4.00 h, individual animals, male monkeys): 126 ng/mL and 410 ng/mL
Plasma Bumetanide Dibenzylamide concentration ([1]; NG 30 mg/kg, Second Formulation (Form 3), 8.00 h, individual animals, female monkeys): 457 ng/mL and 674 ng/mL
Plasma Bumetanide Dibenzylamide concentration ([1]; NG 30 mg/kg, Second Formulation (Form 3), 8.00 h, individual animals, male monkeys): 785 ng/mL
Plasma Bumetanide Dibenzylamide concentration ([1]; NG 30 mg/kg, Second Formulation (Form 3), 24.00 h, individual animals, female monkeys): 9.30 ng/mL and 10.7 ng/mL
Plasma Bumetanide Dibenzylamide concentration ([1]; NG 30 mg/kg, Second Formulation (Form 3), 24.00 h, individual animals, male monkeys): 26.4 ng/mL and 8.13 ng/mL
Plasma Bumetanide Dibenzylamide concentration ([1]; NG 30 mg/kg, Second Formulation (Form 3), 32.00 h, individual animals, female monkeys): 1.63 ng/mL and 1.62 ng/mL
Plasma Bumetanide Dibenzylamide concentration ([1]; NG 30 mg/kg, Second Formulation (Form 3), 32.00 h, individual animals, male monkeys): 6.41 ng/mL and 2.08 ng/mL
Plasma Bumetanide Dibenzylamide concentration ([1]; SL, dose column 5 mg/kg (title 30 mg/kg), Fourth Formulation (Form 2), 4.0 h, individual animals): 0.00 ng/mL
Plasma Bumetanide Dibenzylamide concentration ([1]; SL, dose column 5 mg/kg (title 30 mg/kg), Fourth Formulation (Form 2), 8.0 h, individual animals): 0.380 ng/mL
Plasma Bumetanide Dibenzylamide concentration ([1]; SL, dose column 5 mg/kg (title 30 mg/kg), Fourth Formulation (Form 2), 24.0 h, individual animals): 0.363 ng/mL
Plasma Bumetanide Dibenzylamide concentration ([1]; SL, dose column 5 mg/kg (title 30 mg/kg), Fourth Formulation (Form 2), 32.0 h, individual animals): 0.00 ng/mL
Plasma Bumetanide Dibenzylamide concentration ([2]; male rats, IV bolus 10 mg/kg, 1 h, 10 mg/kg): 1040 ng/mL
AUC(0-inf) [2, 3]: 3730 ng·h/mL
Vd [2, 3]: 10.1 L/kg
clearance [2, 3]: 44.7 mL/min/kg
C0 ([2]; male, Hsd: Sprague Dawley, rat, plasma, iv, 10 mg/kg, C0, rats, IV bolus 10 mg/kg): 2780 ng/mL
concentration at 0.08 h ([2]; male, Hsd: Sprague Dawley, rat, plasma, iv, 10 mg/kg, Plasma Bumetanide Dibenzylamide concentration, male rats, IV bolus 10 mg/kg, 0.08 h): 2510 ng/mL
concentration at 4 h ([2]; male, Hsd: Sprague Dawley, rat, plasma, po, 30 mg/kg, Plasma Bumetanide Dibenzylamide concentration, male rats, oral 30 mg/kg, 4 h): 4.56 ng/mL
concentration at 1 h ([2]; male, Sprague Dawley, rat, plasma, iv, 10 mg/kg, Plasma Bumetanide Dibenzylamide concentration, male rats, IV bolus 10 mg/kg, 1 h): 993 ng/mL
C0 ([2]; rats, IV bolus 10 mg/kg, 10 mg/kg): 2720 ng/mL
Fabs (%) [2, 4]: 0.34% and 0.32%
Fabs (ratio) [2, 4]: 0.0034 and 0.0032
